Assay results published in US8158647B2, “Substituted pyrrolopyridines and pyrazolopyridines as kinase modulators” (SGX Pharmaceuticals, Inc., priority 2007, dated 2012).

Columns and labels:
[1] = target: T1, purified and unphosphorylated T315I Abl kinase domain (ABL_T315I_0P) (Mus musculus, UniProt P00520, T315I); assay: c-Abl T315I (unphosphorylated kinase domain) pyruvate kinase/lactate dehydrogenase coupled enzyme assay; type: biochemical; conditions: 10 μM ATP
T1 construct: The c-Abl T3151 KD (kinase domain) was purified as follows; Met-Ser-Leu (vector-derived residues) (N); made in house; host or cells: E. coli BL21(DE3) strains (Codon+RIL, or pSA0145 for the lambda phosphatase co-expression plasmid)
T1 sequence (P00520 242-493 T315I limits assumed): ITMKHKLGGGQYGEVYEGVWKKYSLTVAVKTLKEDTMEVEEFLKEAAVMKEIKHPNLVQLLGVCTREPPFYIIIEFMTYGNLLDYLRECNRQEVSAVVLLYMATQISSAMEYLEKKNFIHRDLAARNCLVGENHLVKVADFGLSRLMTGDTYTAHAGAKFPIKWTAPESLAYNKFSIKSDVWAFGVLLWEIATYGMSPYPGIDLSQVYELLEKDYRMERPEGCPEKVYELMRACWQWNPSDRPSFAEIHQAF
Excerpt: Although the first of these examples uses the kinase domain of a mutant form of Abl T315I (“Abl T315I KD”), the kinase assays may use various forms of mutant and wild type enzymes, including, for example, the entire protein, the kinase domain, or a portion thereof (e.g. Abl Y393F). The kinases used in the assays may also be of varying phosphorylation states. In the c-Abl example, a mutant kinase at a zero phosphorylation state was used.
c-Abl Pyruvate Kinase/Lactate Dehydrogenase Coupled Enzyme Assay
In the c-Abl Pyruvate Kinase (PK)/Lactate Dehydrogenase (LDH) Coupled Assay the protein kinase dependant phosphorylation of a substrate peptide was coupled to the oxidation of NADH. The oxidation of NADH to NAD+ was detected by monitoring a decrease in absorbance at 340 nm.
Materials: Abl substrate peptide=EAIYAAPFAKKK-OH (SEQ ID NO: 1) (Biopeptide, San Diego, Calif.); […]NADH (Sigma Cat#N-8129, FW=709.4); 2M MgCl2; 1M HEPES buffer, pH 7.5; Phosphoenolpyruvate (PEP) (Sigma Cat#P-7002, FW=234); Lactate dehydrogenase (LDH) (Worthington Biochemical Cat#2756); Pyruvate Kinase (PK) (Sigma Cat#P-9136); ATP (Sigma Cat#A-3377, FW=551); Greiner 384-well UV star plate; and purified and unphosphorylated T3151 Abl kinase domain.
Stock Solutions: 10 mM NADH (7.09 mg/ml in miliQH2O) made fresh daily; 10 mM Abl substrate peptide (13.4 mg/ml in miliQH2O) stored at −20° C.; 100 mM HEPES buffer, pH 7.5 (5 ml 1M stock+45 ml miliQH2O); 100mM MgCl2 (5 ml 2M MgCl2+95 ml dH2O); 100 mM PEP (23.4 mg/ml in dH2O) stored at −20° C.; 10mM ATP (5.51 mg/ml in dH2O) stored at −20° C. (diluted 50 μl into total of 10 ml miliQH2O daily=50 μM ATP working stock); 1000 U/ml PK (U/mg varies with lot) flash-frozen under liquid N2 and stored at −80° C.; and 1000 U/ml LDH (U/mg varies with lot) flash-frozen under liquid N2 and stored at −80° C.
Standard Assay Setup for 384-well format (50 μl reaction): 300 μM NADH; 10 mM MgCl2; 2 mM PEP; 45 U/ml PK; 60 U/ml LDH; 200 μM Abl substrate peptide; 2.5 μl test compound (in DMSO); 2 μg/ml Abl kinase domain; 10 μM ATP; 100 mM HEPES buffer. Positive controls contained DMSO with no test compound. Negative controls contained 5 μl of 0.5M EDTA (50 mM in the assay). The dephosphorylated form of the c-Abl T315I mutant was used in the biochemical screening assays. The kinase reaction was initiated at time t=0 by the addition of ATP.
Activity was measured by following the time-dependent loss of NADH by absorbance spectroscopy at 340 nm. The linear portion of the resulting progress curve was then analyzed by linear regression to get the activity in absorbance units/time, reported as the slope of that best fit line (moles/unit time can be calculated from using molar extinction coefficient for NADH at 340 nm, 6250M^−1 cm^−1).
Screening data was evaluated using the equation: Z′=1-[3*(σ++σ−)/|μ+−μ−|] (Zhang, et al., 1999 J Biomol Screening 4(2) 67-73), where μ denotes the mean and σ the standard deviation. The subscript designates positive or negative controls. The Z′ score for a robust screening assay should be ≧0.50. The typical threshold=μ+−3*σ+−. Any value that falls below the threshold was designated a “hit”.
Dose response was analyzed using the equation: y=min+{(max−min)/(1+10^[compound]−logIC50)}, where y is the observed initial slope, max=the slope in the absence of inhibitor, min=the slope at infinite inhibitor, and the IC50 is the [compound] that corresponds to ½ the total observed amplitude (Amplitude=max−min).
To measure modulation, activation, or inhibition of Abl KD, a test compound was added to the assay at a range of concentrations. Inhibitors may inhibit Abl KD activity at an IC50 in the micromolar range, the nanomolar range, or, for example, in the subnanomolar range.
An open-reading frame for c-Abl was amplified from a Mus musculus (mouse) cDNA library prepared from freshly harvested mouse liver using a commercially available kit (Invitrogen) by PCR using the following primers: […]
The c-Abl T3151 KD (kinase domain) was purified as follows. […]

ABL P210WT BAF3 cells = target: T2, ABL P210WT BAF3 cells (Homo sapiens, UniProt P00519); assay: 96-well XTT cell survival assay, BaF3 ABL P210WT; type: cell-based; conditions: ABL P210 WT, 72 hours, read-out: CELL BIO ABL P210WT BAF3 XTT (IC50)
T2 construct: ABL P210WT BAF3; fused on or other part: P11274 (Breakpoint cluster region protein)
Method: (§1) MV4-11 and THP cells were maintained in Iscove's Modified Dulbecco's Medium supplemented with 10% fetal bovine serum (FBS) and penicillin/streptomycin, Ba/F3 cells were maintained in RPMI 1640 supplemented with 10% FBS, penicillin/streptomycin and 5 ng/ml recombinant mouse IL-3.
(§2) Compounds were tested in the following assays in duplicate.
(§3) 96-well XTT assay: Cells (e.g. BaF3 315I, M3511, or E255K cells) were grown in growth media containing various concentrations of compounds (duplicates) on a 96-well plate for 72 hours at 37° C. The starting cell number was 5000-8000 cells per well and volume was 120 μl. At the end of the 72-hour incubation, 40 μl of XTT labeling mixture (50:1 solution of sodium 3′-[1-(phenylamino-carbonyl)-3,4-tetrazolium]-bis(4-methoxy-6-nitro) benzene sulfonic acid hydrate and Electron-coupling reagent: PMS (N-methyl dibenzopyrazine methyl sulfate) were added to each well of the plate. After an additional 2-6 hours of incubation at 37° C., the absorbance reading at 405 nm with background correction at 650 nm was measured with a spectrophotometer.

ABL T315I BAF3 cells = target: T3, ABL T315I BAF3 cells (Homo sapiens, UniProt P00519, T315I, cells depend on it); assay: 96-well XTT cell survival assay, BaF3 ABL T315I; type: cell-based; conditions: 72 hours, read-out: CELL BIO ABL T315I BAF3 XTT (IC50)
T3 construct: ABL T315I BAF3; fused on or other part: P11274 (Breakpoint cluster region protein)
Method: as §1, §2, §3

SMILES	ABL_T315I_0P (IC50) [1]	GI50 (ABL P210WT BAF3 cells) [nM]	GI50 (ABL T315I BAF3 cells) [nM]
COc1ncccc1-c1c[nH]c2ncc(-c3cnc(N)c(C(=O)N(C)C)c3)c(Cl)c12 [2-Amino-5-[4-chloro-3-(2-methoxy-pyridin-3-yl)-1H-pyrrolo[2,3-b]pyridin-5-yl]-N,N-dimethyl-nicotinamide]	D (<0.01 μM)	10 to 100	10 to 100
COc1ccccc1-c1c[nH]c2ncc(-c3cnn(C)c3)c(N)c12 [3-(2-Methoxy-phenyl)-5-(1-methyl-1H-pyrazol-4-yl)-1H-pyrrolo[2,3-b]pyridin-4-ylamine]	B (1.0-0.1 μM)		
COc1ccc(F)cc1-c1c[nH]c2ncc(-c3cncc(C(=O)N(C)C)n3)c(Cl)c12 [6-[4-Chloro-3-(5-fluoro-2-methoxy-phenyl)-1H-pyrrolo[2,3-b]pyridin-5-yl]-pyrazine-2-carboxylic acid dimethylamide]	D (<0.01 μM)	10 to 100	10 to 100
CN(C)C(=O)c1cc(-c2cnc3[nH]cc(-c4cccc(F)c4)c3c2Cl)cnc1N [2-Amino-5-[4-chloro-3-(3-fluoro-phenyl)-1H-pyrrolo[2,3-b]pyridin-5-yl]-N,N-dimethyl-nicotinamide]	D (<0.01 μM)	100 to 1000	100 to 1000
OC(c1cncc(-c2cnc3[nH]cc(-c4ccc(F)cc4)c3c2Cl)c1)c1ncccc1F (stereo not shown) [{5-[4-Chloro-3-(4-fluoro-phenyl)-1H-pyrrolo[2,3-b]pyridin-5-yl]-pyridin-3-yl}-(3-fluoro-pyridin-2-yl)-methanol]	C (0.1-0.01 μM)	> 1000	> 1000
OC(c1cncc(-c2cnc3[nH]cc(-c4ccccc4F)c3c2Cl)c1)c1ncco1 (stereo not shown) [{5-[4-Chloro-3-(2-fluoro-phenyl)-1H-pyrrolo[2,3-b]pyridin-5-yl]-pyridin-3-yl}-oxazol-2-yl-methanol]	D (<0.01 μM)	100 to 1000	100 to 1000
CN(C)C(=O)c1cncc(-c2cnc3[nH]cc(-c4ccc(F)cc4F)c3c2Cl)c1 [5-[4-Chloro-3-(2,4-difluoro-phenyl)-1H-pyrrolo[2,3-b]pyridin-5-yl]-N,N-dimethyl-nicotinamide]	C (0.1-0.01 μM)	> 1000	> 1000
CN(C)C(=O)C(O)c1cc(-c2cnc3[nH]cc(-c4ccccc4F)c3c2Cl)cnc1N (stereo not shown)	D (<0.01 μM)	100 to 1000	10 to 100
CN(C)C(=O)C(O)c1cncc(-c2cnc3[nH]nc(-c4ccccc4F)c3c2Cl)c1 (stereo not shown) [2-{5-[4-Chloro-3-(2-fluoro-phenyl)-1H-pyrazolo[3,4-b]pyridin-5-yl]-pyridin-3-yl}-2-hydroxy-N,N-dimethyl-acetamide]	B (1.0-0.1 μM)		
COc1ccccc1-c1c[nH]c2ncc(-c3cncc(C(O)C(=O)N(C)C)c3)c(N)c12 (stereo not shown) [2-{5-[4-Amino-3-(2-methoxy-phenyl)-1H-pyrrolo[2,3-b]pyridin-5-yl]-pyridin-3-yl}-2-hydroxy-N,N-dimethyl-acetamide]	D (<0.01 μM)	100 to 1000	100 to 1000
CN(C)C(=O)C(O)c1cncc(-c2cnc3[nH]nc(-c4ccccc4)c3c2Cl)c1 (stereo not shown) [2-[5-(4-Chloro-3-phenyl-1H-pyrazolo[3,4-b]pyridin-5-yl)-pyridin-3-yl]-2-hydroxy-N,N-dimethyl-acetamide]	B (1.0-0.1 μM)		
CN(C)C(=O)C(=O)c1cncc(-c2cnc3[nH]cc(-c4ccc(F)cc4)c3c2Cl)c1 [2-{5-[4-Chloro-3-(4-fluoro-phenyl)-1H-pyrrolo[2,3-b]pyridin-5-yl]-pyridin-3-yl}-N,N-dimethyl-2-oxo-acetamide]	B (1.0-0.1 μM)		
COc1cc(C#N)ccc1-c1c[nH]c2ncc(-c3cnc(N)c(C(=O)N(C)C)c3)c(Cl)c12 [2-Amino-5-[4-chloro-3-(4-cyano-2-methoxy-phenyl)-1H-pyrrolo[2,3-b]pyridin-5-yl]-N,N-dimethyl-nicotinamide]	C (0.1-0.01 μM)		
COc1ccccc1-c1c[nH]c2ncc(-c3cncc(C(O)C(=O)N(C)C)c3)c(N(C)C)c12 (stereo not shown) [2-{5-[4-Dimethylamino-3-(2-methoxy-phenyl)-1H-pyrrolo[2,3-b]pyridin-5-yl]-pyridin-3-yl}-2-hydroxy-N,N-dimethyl-acetamide]	B (1.0-0.1 μM)		
CC(C)c1ncncc1-c1c[nH]c2ncc(-c3cncc(C(O)C(=O)N(C)C)c3)c(Cl)c12 (stereo not shown) [2-{5-[4-Chloro-3-(4-isopropyl-pyrimidin-5-yl)-1H-pyrrolo[2,3-b]pyridin-5-yl]-pyridin-3-yl}-2-hydroxy-N,N-dimethyl-acetamide]	B (1.0-0.1 μM)		
COc1ccccc1-c1c[nH]c2ncc(Br)c(NCCO)c12 [2-[5-Bromo-3-(2-methoxy-phenyl)-1H-pyrrolo[2,3-b]pyridin-4-ylamino]-ethanol]	B (1.0-0.1 μM)		
CSc1c(Br)cnc2[nH]cc(I)c12 [5-Bromo-3-iodo-4-methylsulfanyl-1H-pyrrolo[2,3-b]pyridine]	A (>1.0 μM)		
COc1ccccc1-c1c[nH]c2ncc(Br)c(Cl)c12 [5-Bromo-4-chloro-3-(2-methoxy-phenyl)-1H-pyrrolo[2,3-b]pyridine]	C (0.1-0.01 μM)		
